18 molecules from article PMC4491662, “Synthesis, Biological Evaluation and Molecular Modeling of Substituted Indeno[1,2-b]indoles as Inhibitors of Human Protein Kinase CK2” (Pharmaceuticals, 2015) can be followed below.

A word on the melting point: it is the temperature of the solid-liquid transition. As usually defined, the inhibition is the drop in the measured response relative to a control, in per cent. The EC50 is the concentration at which the effect is half-maximal. Usually Ki stands for the equilibrium dissociation constant of an inhibitor or competing ligand from its target. The low end stands for higher affinity, the high end for lower affinity.

Data set [1] addresses T1, human CK2 holoenzyme (Homo sapiens, UniProt P68400). As to the kind of experiment: biochemical. The conditions noted are these: for inhibition at 10 µM: average percent inhibition at 10 µM.
The subject of data set [2] is NIH-3T3. Description: Cytotoxicity WST-1 assay on NIH-3T3. Format: cell-based, mouse. The conditions noted are these: for EC50: Mus musculus, NIH3T3, 96 h, read-out: EC50 in µM ± SD. The source says: (§1) Four cell lines of various origins were used to evaluate the cytotoxicity of our target compounds 5–7. The selected cell lines were (i) NIH-3T3, a cell line originally established from the primary mouse embryonic fibroblast cells, (ii) MEF, primary mouse embryonic fibroblasts (used at their early passages) prepared as previously described, (iii) WI-38, a human diploid cell line derived from normal embryonic lung tissue, and (iv) HEK293T, a transformed variant of the human embryonic kidney cell line HEK293. After 96 h, cytotoxicity was evaluated using the WST-1 assay. […] Seventeen compounds were evaluated on the cell lines and then compared to TBB used as a standard. […]. All cells were grown in DMEM medium supplemented with 10% fetal calf serum, glutamine (2 mM), penicillin (100 U/mL), and streptomycin (50 μg/mL) at 37 °C under a humidified 5% CO2 atmosphere (Gibco). The assays were performed in sterile 96-wells microtiter plates (Falcon). Cells were plated at 500 (NIH-3T3), 750 (WI-38) or 1000 (MEF; HEK293T) cells/100 µL/well. Drug solutions (10 μL per well) of appropriate concentration (prepared by dilution in the culture medium from 2 mM stock acetonitrile solution) were added 24 h after cell seeding. For ellagic acid and emodin, DMSO was used to prepare the stock solution. After 96 h, the cytotoxicity is evaluated using the Cell Proliferation Reagent WST-1 following the procedure described by the manufacturer (Roche Applied Science). The drugs were assayed at 10, 5, 1, 0.2 and 0.04 µM in triplicate. The vehicle was used as control. The experiments were repeated three times.

Data set [3] relates to WI-38. Description: Cytotoxicity WST-1 assay on WI-38. It is filed as cell-based, human. The note with it: WI-38, 96 h; for EC50: Homo sapiens, read-out: EC50 in µM ± SD.
From the text: as §1

Data set [4] concerns HEK293T. Description: Cytotoxicity WST-1 assay on HEK293T. It is filed as cell-based, human. The conditions noted are these: 96 h; for EC50: Homo sapiens, HEK-293T, read-out: EC50 in µM ± SD.
From the text: as §1
(In general: Formazan colour is commonly taken as a measure of viable cells.)

The test system of data set [5] is MEF. Description: Cytotoxicity WST-1 assay on MEF. Format: cell-based, mouse. The conditions noted are these: 96 h; for EC50: Mus musculus, read-out: EC50 in µM ± SD.
From the text: as §1

A short description of data set [6]: Cytotoxicity WST-1 assay, statements over the four cell lines. It is filed as cell-based. The conditions noted are these: mouse (NIH-3T3, MEF) and human (WI-38, HEK293T), WST-1, cell line not specified, read-out: EC50 (cytotoxic activity, over the cell lines).
From the text: as §1

The target of data set [7] is T1, human CK2 holoenzyme. Description: Mode of inhibition and Ki determination, CE based CK2 activity assay at varied ATP. Format: biochemical. Also noted: made in house; host or cells: Escherichia coli BL21(DE3), pT7-7 expression system. The conditions noted are these: for IC50: IC50 at varied ATP. The procedure: For this purpose, reaction rates at different inhibitor concentrations were plotted in a Lineweaver-Burk diagram against the varying ATP concentration, resulting in −1/Kmapp as given by the intercepts with the abscissa in both graphs. For determining the Ki values, Kmapp were plotted against the different inhibitor concentrations as shown for 7a in Figure 6.
For this purpose, enzymatic reactions and IC50 determinations were performed as described in Section 3.3.2., but varying compositions of the assay buffer with respect to the ATP concentration were used. […] For this purpose, reaction velocities at different inhibitor concentrations were plotted in a Lineweaver-Burk diagram against the varied ATP concentrations and the corresponding −1/Kmapp were obtained by the intercepts with the abscissa. Finally the Kmapp values as obtained were plotted against the different inhibitor concentrations. By this method, the Ki values with a negative sign were given by the intercepts of the linear slope with the abscissa.

T1 sequence (P68400 whole entry): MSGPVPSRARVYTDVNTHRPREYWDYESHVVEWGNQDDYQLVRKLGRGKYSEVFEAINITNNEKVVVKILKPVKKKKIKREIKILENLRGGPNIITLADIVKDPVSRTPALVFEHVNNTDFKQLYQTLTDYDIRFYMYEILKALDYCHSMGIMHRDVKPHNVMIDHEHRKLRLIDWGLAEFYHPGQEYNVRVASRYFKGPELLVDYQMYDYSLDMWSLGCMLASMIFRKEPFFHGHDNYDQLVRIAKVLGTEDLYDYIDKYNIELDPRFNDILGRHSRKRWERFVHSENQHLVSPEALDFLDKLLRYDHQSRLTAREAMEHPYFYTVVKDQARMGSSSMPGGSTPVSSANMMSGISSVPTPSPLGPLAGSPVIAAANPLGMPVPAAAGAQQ
T1 sequence (P67870 whole entry partner): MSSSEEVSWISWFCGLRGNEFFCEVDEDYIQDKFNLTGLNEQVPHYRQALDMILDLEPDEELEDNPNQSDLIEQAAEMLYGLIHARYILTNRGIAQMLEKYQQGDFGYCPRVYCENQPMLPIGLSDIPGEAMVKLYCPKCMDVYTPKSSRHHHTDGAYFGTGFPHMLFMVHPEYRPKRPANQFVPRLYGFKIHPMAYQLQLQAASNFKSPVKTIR

`CC(C)n1c2c(c3c1-c1ccccc1C3=O)C(=O)CC(c1ccco1)C2` (stereo not drawn) [Compound 5e, 7-Furan-2-yl-5-isopropyl-5,6,7,8-tetrahydroindeno[1,2-b]indole-9,10-dione] gave a melting point of 233.1 °C. In data set [1], this molecule showed an inhibition at 10 µM of 35%.

`CC(C)n1c2c(c3c1-c1ccccc1C3=O)C(=O)CC(c1ccccc1)C2` (stereo not drawn) [Compound 5c, 5-Isopropyl-7-phenyl-5,6,7,8-tetrahydroindeno[1,2-b]indole-9,10-dione]: the melting point was found to be 278 °C. Further, the EC50 in data set [2] is over 10 µM. In data set [1], this molecule had an inhibition at 10 µM of 7%. Besides, in data set [3], the concentration for a half-maximal effect (EC50) was over 10 µM. For the same molecule, the concentration giving a half-maximal response (EC50) in data set [4] was over 10 µM. For the same molecule, the EC50 in data set [5] is over 10 µM.

Turning to `CC(C)n1c2c(c3c(O)cc(-c4ccc(F)cc4)cc31)C(=O)c1ccccc1-2` [Compound 6d, 7-(4-Fluorophenyl)-9-hydroxy-5-isopropyl-5H-indeno[1,2-b]indol-10-one], the melting point is 208.1 °C. Besides, the EC50 in data set [2] is over 10 µM. For the same molecule, the EC50 in data set [3] was over 10 µM. Besides, in data set [4], the EC50 was over 10 µM. In addition, the concentration giving a half-maximal response (EC50) in data set [5] was over 10 µM.

As to `CC1CC(=O)c2c3c(n(C(C)C)c2C1)-c1ccccc1C3=O` (stereo not drawn) [Compound 5a, 5-Isopropyl-7-methyl-5,6,7,8-tetrahydroindeno[1,2-b]indole-9,10-dione], the EC50 in data set [2], in data set [3], in data set [4] and in data set [5] was over 10 µM throughout. Further, in data set [6], the EC50 at 96 h was over 10 µM.

In turn, `CC(C)c1ccc2c(c1O)c1c(n2C(C)C)-c2ccccc2C1=O` [Compound 6g, 9-Hydroxy-5,8-diisopropyl-5H-indeno[1,2-b]indol-10-one] showed a melting point of 235 °C.

Molecule `CC(C)c1cc(=O)c2c(c1=O)c1c(=O)c3ccccc3c1n2C(C)C` [Compound 7g, 5,8-Diisopropyl-5H-indeno[1,2-b]indole-6,9,10-trione] came in with a melting point of 226 °C. Further, the EC50 in data set [2] was 1.5 ± 0.8 µM. The molecule further registered an inhibition at 10 µM in data set [1] of 45%. In addition, the half-maximal effective concentration (EC50) in data set [3] is 2.5 ± 0.4 µM. Further, the EC50 in data set [4] stood at 0.4 ± 0.02 µM. Moreover, the EC50 at 96 h in data set [6] was in the range of 0.4 to 8.8 µM. Moreover, in data set [5], the EC50 was over 10 µM.

Molecule `CC(C)C1CCc2c(c3c(n2C(C)C)-c2ccccc2C3=O)C1=O` (stereo not drawn) [Compound 5g, 5,8-Diisopropyl-5,6,7,8-tetrahydroindeno[1,2-b]indole-9,10-dione] registered a melting point of 215 °C. The EC50 in data set [2] was over 10 µM. The molecule further gave an inhibition at 10 µM in data set [1] of 21%. Also, the EC50 in data set [3] was over 10 µM. Also, the half-maximal effective concentration (EC50) in data set [4] is over 10 µM. In data set [5], the EC50 was over 10 µM.

For `CC1CCc2c(c3c(n2C(C)C)-c2ccccc2C3=O)C1=O` (stereo not drawn) [Compound 5f, 5-Isopropyl-8-methyl-5,6,7,8-tetrahydroindeno[1,2-b]indole-9,10-dione], the EC50 in data set [2], in data set [3], in data set [4] and in data set [5] was over 10 µM each time.

For the molecule `Brc1c(Br)c(Br)c2[nH]nnc2c1Br` [TBB, reference compound], the concentration for a half-maximal effect (EC50) in data set [2], in data set [3], in data set [4] and in data set [5] was over 10 µM each time.

Regarding `CC(C)n1c2c(c3c1-c1ccccc1C3=O)C(=O)CC(c1ccc(F)cc1)C2` (stereo not drawn) [Compound 5d, 7-(4-Fluorophenyl)-5-isopropyl-5,6,7,8-tetrahydroindeno[1,2-b]indole-9,10-dione], the melting point turned out to be 264 °C. The molecule also came in with an inhibition at 10 µM in data set [1] of 12%.

Molecule `CC(C)n1c2c(c3c(O)cc(-c4ccccc4)cc31)C(=O)c1ccccc1-2` [Compound 6c, 9-Hydroxy-5-isopropyl-7-phenyl-5H-indeno[1,2-b]indol-10-one] showed a melting point of 198 °C. Also, in data set [2], the EC50 was over 10 µM. In addition, in data set [3], the EC50 was over 10 µM. Also, the EC50 in data set [4] is over 10 µM. In addition, in data set [5], the EC50 was over 10 µM.

As to `Cc1cc(O)c2c3c(n(C(C)C)c2c1)-c1ccccc1C3=O` [Compound 6a, 9-Hydroxy-5-isopropyl-7-methyl-5H-indeno[1,2-b]indol-10-one], the EC50 in data set [2], in data set [3], in data set [4] and in data set [5] was over 10 µM each time.

With `CC(C)n1c2c(=O)c(-c3ccco3)cc(=O)c2c2c(=O)c3ccccc3c21` [Compound 7e, 7-Furan-2-yl-5-isopropyl-5H-indeno[1,2-b]indole-6,9,10-trione], the melting point was 216.1 °C. In data set [1], this molecule yielded an IC50 of 1.65 ± 0.14 µM and an inhibition at 10 µM of 82%.

In the case of `Cc1cc(O)c2c(c1)C(=O)c1cc(O)cc(O)c1C2=O` [emodin, reference compound], the EC50 in data set [2], in data set [3], in data set [4] and in data set [5] was over 10 µM each time.

Consider `Cc1cc(=O)c2c3c(=O)c4ccccc4c3n(C(C)C)c2c1=O` [Compound 7a, 5-Isopropyl-7-methyl-5H-indeno[1,2-b]indole-6,9,10-trione], for which the melting point came to 235 °C. The molecule also returned a Ki in data set [7] of 0.144 ± 0.022 µM. In data set [7] (fifth of six ATP concentrations ranging from 6 to 600 µM), this molecule came in with an IC50 of 3.32 µM. The IC50 in data set [7] (fourth of six ATP concentrations ranging from 6 to 600 µM) was 1.27 µM. In data set [7] (highest of six ATP concentrations, 600 µM), this molecule registered an IC50 of 5.16 µM. Besides, in data set [7] (lowest of six ATP concentrations, 6 µM), the IC50 was 0.13 µM. Further, in data set [7] (second of six ATP concentrations ranging from 6 to 600 µM), the IC50 was determined as 0.34 µM. The molecule further displayed an IC50 in data set [7] (third of six ATP concentrations ranging from 6 to 600 µM) of 0.43 µM. Further, the “mode of CK2 inhibition” value in data set [7] (IC50 increases linearly with ATP concentration) is “ATP competitive”. In addition, the “IC50 at 600 µM ATP compared to IC50 at 6 µM ATP” value in data set [7] (fold higher) worked out at 40 fold. Also, in data set [2] (NIH-3T3, 96 h, WST-1), the “EC50 in µM ± SD” value is “not soluble”. In data set [1], this molecule had an IC50 of 0.43 ± 0.12 µM and an inhibition at 10 µM of 87%. The “EC50 in µM ± SD” value in data set [3] (WST-1) is reported as “not soluble”. Further, the “EC50 in µM ± SD” value in data set [4] (HEK293T, WST-1) was “not soluble”. For the same molecule, the “EC50 in µM ± SD” value in data set [5] (WST-1) is reported as “not soluble”.

With `CC(C)n1c2c(c3c(O)cc(-c4ccco4)cc31)C(=O)c1ccccc1-2` [Compound 6e, 7-Furan-2-yl-9-hydroxy-5-isopropyl-5H-indeno[1,2-b]indol-10-one], the melting point was 191 °C. The EC50 in data set [2] was over 10 µM. Also, the EC50 in data set [3] was over 10 µM. For the same molecule, the concentration for a half-maximal effect (EC50) in data set [4] was over 10 µM. In data set [5], the EC50 is over 10 µM.

As for `CC(C)c1cc(O)c2c3c(n(C(C)C)c2c1)-c1ccccc1C3=O` [Compound 6b, 9-Hydroxy-5,7-diisopropyl-5H-indeno[1,2-b]indol-10-one], the melting point worked out at 188.1 °C. Further, the EC50 in data set [2] was over 10 µM. Besides, the EC50 in data set [3] was over 10 µM. In data set [4], the EC50 is over 10 µM. In data set [5], the EC50 is over 10 µM.

In the case of `CC(C)C1CC(=O)c2c3c(n(C(C)C)c2C1)-c1ccccc1C3=O` (stereo not drawn) [Compound 5b, 5,7-Diisopropyl-5,6,7,8-tetrahydroindeno[1,2-b]indole-9,10-dione], the EC50 in data set [2] is over 10 µM; in data set [3], over 10 µM; in data set [4], over 10 µM; in data set [5], 4.4 ± 0.3 µM. The molecule further had an IC50 in data set [1] of 0.61 ± 0.03 µM. Also, the half-maximal effective concentration (EC50) at 96 h in data set [6] was over 10 µM.
